Measurements from patent US3934036A, “N-benzenesulfonyl-β-alanine hydrazide useful as an immunosuppressive agent” (priority 1975, dated 1976).
“Also recorded” adds a separate entry of the source.

How the values were obtained:
7S plaque-forming cells = test: Antibody production to sheep erythrocytes, 7S plaque-forming cells, comparison with other agents; conditions: i.p.; for Spleen weight, mean ± S.E. / 7S PFC/10^6 spleen cells, mean ± S.E. / Mean body weight gain: 8 days; for Spleen weight, mean ± S.E.: control 125 ± 16; for 7S PFC/10^6 spleen cells, mean ± S.E.: control 1045 ± 202; for Mean body weight gain: control +1.0
Method: The effect of KH-125 on antibody production in ddY mice was examined by Cunningham and Szenberg's plaque technique (Immunology, 14, 599, 1968) and compared with other agents.
Mice were immunized by intravenous injection of washed sheep erythrocytes (4 × 10^8 cells/mouse). Administration of KH-125 was made orally for 4 consecutive days from the day of antigen injection. 19S Plaque-forming cells (PFC) were counted 4 days after immunization.
In comparative experiment, test agents were administered intraperitoneally for 8 consecutive days from one day before immunization. 7S PFC's were counted 9 days after immunization.

[1] = Acute toxicity in rats (LD50); format: in vivo, Wistar rats; conditions: rat, in vivo
Method: (§1) The acute toxicity of KH-125 was studied in both sexes of ddY mice and Wistar rats. The LD50 values were calculated by the method of Litchfield and Wilcoxon (J. Pharmacol. Exptl. Ther., 96, 99, 1949).

Wistar rats [2] = test: Acute toxicity in rats (LD50); format: in vivo; conditions: rats, male vs female
Method: as §1

mice and rats = test: Carcinogenic tests; format: in vivo
Method: (§2) Its toxicological properties were evaluated by subacute and chronic toxicity tests in rats, by teratological studies in rats and rabbits and also by carcinogenic tests in mice and rats.

Wistar rats [3] = test: Chronic toxicity study, 6 months oral; format: in vivo
Method: The chronic toxicity study of KH-125 was carried out in Wistar rats of both sexes. Rats were treated orally with KH-125 for 6 months at the dose levels of 0 (control), 10, 20 and 40 mg/kg/day.

adjuvant arthritis = test: Adjuvant arthritis in rats, prophylactic experiment; conditions: for increase in arthritis score / swelling of adjuvant-injected and non-injected feet: once daily for 17 days
nephrotoxic nephritis [4] = test: Nephrotoxic nephritis in rats, prophylactic experiment; format: in vivo, Wistar rats
Method: Protein-uria was measured 18 days after nephrotoxin injection, then for electron microscopic examination the rats were killed 2 days later.
Urinary protein was measured 18 days after the nephrotoxin-injection, and then the nephrotic rats were sacrificed 2 days later for histopathological examinations.

[5] = test system: antibody formation to sheep erythrocytes; test: Screening for ability to suppress antibody formation to sheep erythrocytes in mice; format: in vivo
Method: In an attempt to find an immunosuppressive agent having a lowered toxicity, about fifty acid hydrazides, mainly amino acid hydrazide derivatives, were synthesized and screened for their ability to suppress the antibody formation to sheep erythrocytes in mice. […] Further detailed pharmacological and toxicological studies were then performed about KH-125.

[6] = Acute toxicity in mice (LD50); format: in vivo, ddY mice; conditions: mouse, in vivo
Method: as §1

ddY mice = test: Acute toxicity in mice (LD50); format: in vivo; conditions: mice, male vs female
Method: as §1

rats, rabbits and mice = test: Subacute and chronic toxicity, teratological and carcinogenic studies (summary); format: in vivo; conditions: subacute, chronic
Method: as §2

rats and rabbits = test: Teratological studies; format: in vivo
Method: as §2

19S plaque-forming cells = test: Antibody production to sheep erythrocytes, 19S plaque-forming cells (oral administration); format: in vivo, ddY mice; conditions: 4 days; for Mean body weight gain: control +0.8
Description: Mice were immunized by intravenous injection of washed sheep erythrocytes (4 × 10^8 cells/mouse). […] 19S Plaque-forming cells (PFC) were counted 4 days after immunization.

nephrotoxic nephritis [7] = test: Nephrotoxic nephritis in rats, comparative experiment; format: in vivo, Wistar rats; conditions: p.o. once daily, 15 days; protein-uria, fusion index, basement membrane thickening
Method: Protein-uria was measured 18 days after nephrotoxin injection, then for electron microscopic examination the nephrotic rats were killed 3 days later. See legend of FIG. 2 for other details.
The effect of KH-125 on nephrotoxic nephritis in Wistar rats was evaluated from the following three points: (1) urinary protein measurements, (2) electron microscopic findings and (3) light microscopic findings. Nephrotic rats were prepared according to Shibata's method. (Ths Saishin-Igaku, 20, 1089, 1965).
In a comparative experiment, test agents were administered once daily: KH-125, 15 days during days 0 - 10 and 15 - 18 (p.o.); 6-mercaptopurine (6-MP), 6 days during days 0 - 5 (p.o.); cyclophosphamide, 11 days during days 0 - 10 (i.p.); and prednisolone, 11 days during days 0 - 10 (i.p.), starting from the day of nephrotoxin-injection. Urinary protein was measured 18 days after the injection of nephrotoxin, and then the animals were sacrificed 3 days later for histopathological examinations.

[8] = established immunosuppressive drugs; cited from earlier work
[9] = 6 months, 10, 20 and 40 mg/kg/day
[10] = oral, electron microscopic findings

In the case of `C[C@]12C=CC(=O)C=C1CC[C@@H]1[C@@H]2[C@@H](O)C[C@@]2(C)[C@H]1CC[C@]2(O)C(=O)CO` [prednisolone], the “Spleen weight, mean ± S.E.” value (7S plaque-forming cells; 4 mg/kg/day) was 116 ± 19 mg and the “7S PFC/10^6 spleen cells, mean ± S.E.” value (7S plaque-forming cells; 4 mg/kg/day) was 706 ± 178 7SPFC/10^6 spleen cells.

`NNC(=O)CCNS(=O)(=O)c1ccccc1` [KH-125, N-benzenesulfonyl-β-alanine hydrazide] showed an LD50 ([1]; ip, female rats) of 2580 mg/kg, an LD50 ([1]; ip, male rats) of 2150 mg/kg and an LD50 ([1]; po, female rats) of over 4000 mg/kg. For the same compound, the LD50 ([1]; po, male rats) was over 4000 mg/kg, the LD50 ([1]; sc, female rats) was over 4000 mg/kg and the LD50 ([1]; sc, male rats) was over 4000 mg/kg. The “sex difference concerning the acute toxicity” value (Wistar rats [2]) was “No sex difference”, the carcinogenic effect (mice and rats) was “neither teratogenic nor carcinogenic effect” and the body weight gain (Wistar rats [3]; 6 months, 40 mg/kg/day) was “slightly inhibited”. For the same compound, the “erythrocyte count and hemoglobin” value (Wistar rats [3]; [9]) was “dose-dependent decrease”, the “general symptoms, food intake, urinalysis, and fractionation of serum protein” value (Wistar rats [3]; [9]) was “No significant effects” and the histopathological examinations (Wistar rats [3]; [9]) was “No toxic effects which could be attributed to the drug were detected”. The “serum enzyme activities, S-GOT and S-GPT” value (Wistar rats [3]; [9]) was “slight but dose-dependent increases”, the survival (Wistar rats [3]; [9]) was “All rats survived” and the “rebound of foot swelling after withdrawal” value (adjuvant arthritis; after withdrawal) was “not prominent”. For the same compound, the “survival during the experiment” value (adjuvant arthritis; oral, as high as 80 mg/kg/day, 17 days) was “survived throughout the test period”, the “increase in arthritis score” value (adjuvant arthritis; oral) was “dose-dependently suppressed” and the “swelling of adjuvant-injected and non-injected feet” value (adjuvant arthritis; oral) was “dose-dependently suppressed”. For the same compound, the “suppression of adjuvant arthritis (summary)” value (adjuvant arthritis; rats) was “suppress adjuvant arthritis”, the “safety margin (maximal tolerated dose in repeated administration versus effective dose) relative to 6-mercaptopurine” value (adjuvant arthritis; versus 6-mercaptopurine, adjuvant arthritis) was “about 3 times” and the light microscopic findings (nephrotoxic nephritis [4]; oral) was “good improvement of nephritis”. The “fusion index of epithelial foot processes” value (nephrotoxic nephritis [4]; [10]) was “improved”, the “thickening of glomerular basement membrane” value (nephrotoxic nephritis [4]; [10]) was “suppressed” and the protein-uria (nephrotoxic nephritis [4]; oral, twice a day, 18 days after nephrotoxin injection) was “decreased dose-dependently”. For the same compound, the “suppression of experimental nephrotoxic nephritis (summary)” value (nephrotoxic nephritis [4]; rats) was “suppress adjuvant arthritis as well as experimental nephrotoxic nephritis”, the “immunosuppressive activity among about fifty acid hydrazides tested” value ([5]; mice, antibody formation to sheep erythrocytes) was “most potent immunosuppressive activity” and the “acute toxicity among the compounds tested” value ([5]; screening) was “fairly lower acute toxicity”. For the same compound, the “Spleen weight, mean ± S.E.” value (7S plaque-forming cells; 200 mg/kg/day, p < 0.01) was 60 ± 8 mg, the “7S PFC/10^6 spleen cells, mean ± S.E.” value (7S plaque-forming cells; 200 mg/kg/day, p < 0.01) was 233 ± 63 7SPFC/10^6 spleen cells and the “Mean body weight gain” value (7S plaque-forming cells; 200 mg/kg/day) was -4.5 g. The “suppressive effect on the appearance of 7S PFC, compared with other agents” value (7S plaque-forming cells; 8 consecutive days) was “higher than that of prednisolone or 6-mercaptopurine; also recorded: less effective than cyclophosphamide”, the LD50 ([6]; ip, female mice) was 1410 mg/kg and the LD50 ([6]; ip, male mice) was 1230 mg/kg. For the same compound, the LD50 ([6]; po, female mice) was 1570 mg/kg, the LD50 ([6]; po, male mice) was 1520 mg/kg and the LD50 ([6]; sc, female mice) was 1440 mg/kg. For the same compound, the LD50 ([6]; sc, male mice) was 1150 mg/kg, the “sex difference concerning the acute toxicity” value (ddY mice) was “No sex difference” and the “toxicity compared with well-known immunosuppressive agents” value (rats, rabbits and mice) was “considerably lower toxicity than well-known immunosuppressive agents”. The teratogenic effect (rats and rabbits) was “neither teratogenic nor carcinogenic effect”, the “Spleen weight, mean ± S.E.” value (19S plaque-forming cells; 40 mg/kg/day, control 181 ± 8) was 135 ± 20 mg and the “19S PFC/10^6 spleen cells, mean ± S.E.” value (19S plaque-forming cells; 40 mg/kg/day, control 1905 ± 267) was 1383 ± 327 19S PFC/10^6 spleen cells. The “Mean body weight gain” value (19S plaque-forming cells; 40 mg/kg/day) was “+1.0 g”, the “Spleen weight, mean ± S.E.” value (19S plaque-forming cells; 80 mg/kg/day, control 181 ± 8, p < 0.05) was 139 ± 9 mg and the “19S PFC/10^6 spleen cells, mean ± S.E.” value (19S plaque-forming cells; 80 mg/kg/day, control 1905 ± 267, p < 0.01) was 368 ± 124 19S PFC/10^6 spleen cells. For the same compound, the “Mean body weight gain” value (19S plaque-forming cells; 80 mg/kg/day) was -0.8 g, the “Spleen weight, mean ± S.E.” value (19S plaque-forming cells; 160 mg/kg/day, control 181 ± 8) was 164 ± 14 mg and the “19S PFC/10^6 spleen cells, mean ± S.E.” value (19S plaque-forming cells; 160 mg/kg/day, control 1905 ± 267, p < 0.01) was 329 ± 46 19S PFC/10^6 spleen cells. The “Mean body weight gain” value (19S plaque-forming cells; 160 mg/kg/day) was -0.5 g, the “appearance of 19S PFC” value (19S plaque-forming cells; 40-160 mg/kg/day) was “dose-dependently suppressed” and the “suppression of nephrotoxic nephritis, compared with 6-mercaptopurine, cyclophosphamide and prednisolone” value (nephrotoxic nephritis [7]) was “most effectively suppressed”.

In the case of `O=P1(N(CCCl)CCCl)NCCCO1` (stereo not drawn) [cyclophosphamide], the “Spleen weight, mean ± S.E.” value (7S plaque-forming cells; 20 mg/kg/day, p < 0.05) was 87 ± 7 mg, the “7S PFC/10^6 spleen cells, mean ± S.E.” value (7S plaque-forming cells; 20 mg/kg/day, p < 0.01) was 61 ± 8 7SPFC/10^6 spleen cells and the “Mean body weight gain” value (7S plaque-forming cells; 20 mg/kg/day) was “+0.2 g”. The “teratogenic and carcinogenic effect” value [8] was “inevitably shared”.

With `Sc1ncnc2nc[nH]c12` [6-mercaptopurine, reference compound] the “rats died during the experiment” value (adjuvant arthritis; oral, 30 mg/kg/day, 17 days) was “Three of 7”, the “increase in arthritis score” value (adjuvant arthritis; oral) was “dose-dependently suppressed” and the “swelling of adjuvant-injected and non-injected feet” value (adjuvant arthritis; oral) was “dose-dependently suppressed”. For the same compound, the “Spleen weight, mean ± S.E.” value (7S plaque-forming cells; 30 mg/kg/day) was 103 ± 12 mg, the “7S PFC/10^6 spleen cells, mean ± S.E.” value (7S plaque-forming cells; 30 mg/kg/day, p < 0.05) was 385 ± 83 7SPFC/10^6 spleen cells and the “teratogenic and carcinogenic effect” value [8] was “inevitably shared”.
